# Like-named read-outs stand apart in the source and are kept apart here.
# How the values were obtained:
# [1] = cited from earlier work; for Comments: stability: light, heat, acid, oxidation, SO2, ascorbic acid; for Comments: solubility: water / lipid solubility
# [2] = β-carotene solubility in organic solvents; type: physicochemical; details: organic solvent or mixture
# [3] = color photographs, dispersed in water
Compound,Comments: solubility [1],Comments: stability ([1]; in presence of ascorbic acid),other results
Capsanthin/capsorubin,,,Comments: stability [1]: Fair stability to light and heat
COc1cc(/C=C/C(=O)CC(=O)/C=C/c2ccc(O)c(OC)c2)ccc1O [Curcumin],low water solubility,,
Chlorophyll,Liposoluble. Not allowed as a colorant in the U.S.,,
CC1=C[C@H](O)CC(C)(C)[C@H]1/C=C/C(C)=C/C=C/C(C)=C/C=C/C=C(C)/C=C/C=C(C)/C=C/C1=C(C)C[C@@H](O)CC1(C)C [Lutein],,Fades in the presence of ascorbic acid.,"Comments: stability ([1]; to light): Poor stability to light, heat, acid, oxidation, and SO2."
"Cc1c(C(=O)O)c(O)cc2c1C(=O)c1c(O)c([C@@H]3O[C@H](CO)[C@@H](O)[C@H](O)[C@H]3O)c(O)c(O)c1C2=O [Carmine, carminic acid, carminic acid]",Water soluble,Fades in the presence of ascorbic acid or SO2,"Comments: stability ([1]; to light, heat and acid): Good stability to light, heat, and acid"
CC1=C(/C=C/C(C)=C/C=C/C(C)=C/C=C/C=C(C)/C=C/C=C(C)/C=C/C2=C(C)CCCC2(C)C)C(C)(C)CCC1 [β-carotene],,,solubility [2]: ≤ 20 mg/mL; color and distribution in water [3]: non-uniform color and distribution

# From patent publication US9707185B2, “Water-soluble nanoparticles containing water-insoluble compounds” (Board of Supervisors of Louisana State University And …, priority 2007, dated 2017)
